# Results published in patent publication US20070248646A1, “Use of azurocidin inhibitors in prevention and treatment of ocular vascular leakage” (priority 2006, published 2007).
# Assays:
# Format in all cases: in vivo, Brown Norway rats
# [1] = tested on: VEGF-induced retinal leukostasis; experiment: Concanavalin A ex vivo retinal leukostasis quantification, VEGF-induced
# Experimental: (§1) This study employed Brown Norway rats, AZ (1 μg, 10 μg, 20 μg), PBS, aprotinin, VEGF164, and polyclonal anti-AZ antibody (1 μg). Briefly, Brown Norway rats received intravitreal injections of AZ (1 μg, 10 μg and 20 μg) in one eye and PBS in the contralateral eye. BRB breakdown was quantified using the Evans Blue (EB) technique at 1 hour, 3 hours, and 24 hours after intravitreal injection of AZ or PBS. To assess whether AZ induced retinal leukostasis, firm leukocyte adhesion was quantified at 3 hours and 24 hours post AZ injection (10 μg) using the ex vivo conconavalin leukostasis assay. To block AZ, rats were treated with a single intravenous injection of aprotinin (30,000KIU), prior to the intravitreal injections. To investigate whether AZ was involved in VEGF-induced BRB breakdown, rats received intravitreal injections of 50 ng recombinant mouse VEGF164 in one eye and PBS in the other eye and were treated intravenously with aprotinin (50,000KIU every eight hours) or polyclonal anti-AZ antibody (1 μg). BRB breakdown and retinal leukostasis were quantified 24 hours after VEGF injection.
# Deep anesthesia was induced with xylazine and ketamine as above. The chest cavity was carefully opened and the left ventricle was entered with a 14-gauge perfusion cannula fixed to a vessel clamp; care was taken to avoid ventricular obstruction. The right atrium was opened with a 12-gauge needle to achieve outflow. With the heart providing the motive force, 250 ml/kg PBS (roughly 30 ml of PBS quickly) was perfused to clear erythrocytes and non-sticking leukocytes, followed by perfusion with FITC-coupled Concanavalin A lectin (20 μg/ml in PBS, pH 7.4, total concentration 5 mg/kg) (Vector Labs, Burlingame, Calif.). The latter stained adherent leukocytes and the vascular endothelium. Lectin staining was followed by PBS perfusion (30 ml quickly).
# The retinas were flat-mounted in a water-based fluorescence-anti-fading medium (Southern Biotechnology, Birmingham, Ala.) and imaged via fluorescence microscopy (Leica upright microscope, Hamamatsu digital high sensitivity camera, openlab imaging software). The total number of adherent leukocytes per retina was counted in a masked fashion.
# [2] = molecular target: T1, human neutrophil azurocidin (Homo sapiens, UniProt P20160); experiment: Suppression of azurocidin-induced BRB breakdown (Evans Blue)
# T1 construct: purchased Athens Research and Biotechology, Atlanta, Ga
# T1 sequence (P20160 27-248): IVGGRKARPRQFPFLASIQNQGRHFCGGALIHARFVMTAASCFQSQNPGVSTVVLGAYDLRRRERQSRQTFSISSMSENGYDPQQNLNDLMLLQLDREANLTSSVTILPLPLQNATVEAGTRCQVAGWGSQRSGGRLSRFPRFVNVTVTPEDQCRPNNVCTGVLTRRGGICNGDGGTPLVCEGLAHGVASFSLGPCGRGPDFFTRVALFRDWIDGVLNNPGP
# Experimental: as §1
# In a second group, the rats were additionally treated intravenously with the azurocidin inhibitor, aprotinin (Trasylol®, Bayer Pharmaceuticals). […] The retinas were analyzed one hour after azurocidin administration using the Evans Blue technique.
# Retinal vascular permeability was quantified as previously described (Qaum et al. (2002) supra, Xu et al. (2001) INVEST. OPHTHALMOL. VIS. SCI. 42; 789-94). […] The background-subtracted absorbance was determined by measuring each sample at 620 nm (the absorbance maximum for Evans blue dye in formamide) and 740 nm (the absorbance minimum) with a spectrophotometer. The concentration of dye in the plasma was calculated from a standard curve of Evans blue dye in formamide. […] The background-subtracted absorbance was determined by measuring each sample at 620 nm (the absorbance maximum for Evans blue dye in formamide) and 740 nm (the absorbance minimum). The concentration of dye in the extracts was calculated from a standard curve of Evans blue dye in formamide. […]
# [3] = tested on: retinal vascular permeability; experiment: Qualitative evaluation of retinal vascular permeability with 20-kDa FITC conjugated dextran; conditions: flat-mount retinas, VEGF-injected eyes with or without aprotinin
# Experimental: Retinal vascular permeability was documented in a histological manner by intravenous injection of 20-kDa FITC conjugated dextran (50 mg/Kg, Sigma Aldrich). Rats were sacrificed 30 minutes later with intracardiac perfusion of 4% paraformaldehyde to fix the dextran conjugate in the tissues. The retinas were carefully dissected and flat mounted in anti-fading medium (Vector Laboratories). Flat-mount retinas were examined by fluorescent microscopy. Digital color enhancement (green) was equally applied to all images for improved visualization of fluorescence.
substance,measurement,setting,value
aprotinin,leukocyte adhesion as a percentage of leukocyte adhesion in the contralateral PBS-injected eye,"[1]; 24 hours after 50 ng VEGF, aprotinin 50,000 KIU i.v. 1 hour before, 8 and 16 hours after",252%
same,"leukocyte adhesion, VEGF-injected vs VEGF- and aprotinin-treated eyes",[1]; P>0.05,did not differ significantly
same,basal levels of retinal vascular leakage,[2]; aprotinin treatment alone (PBS-injected eye),did not affect basal levels of retinal vascular leakage
same,block of AZ-induced leakage,"[2]; single i.v. 30,000KIU 1 hour before intravitreal azurocidin 20 μg, Evans Blue 1 hour later",greater than 98%
same,Evans Blue retinal leakage in AZ-injected eyes,"[2]; single i.v. 30,000KIU 1 hour before intravitreal azurocidin, AZ alone 45±17",6±0.64 μl plasma/g retina/h
same,retinal distribution of intravenously injected 20 kDa FITC-conjugated dextran,[3],fluorescein staining more localized to the retinal vasculature
